These are literature values, as cited in patent US20130065255A1, “Biomarker to Measure Drug Efficacy in Enteropathic Disease” (priority 2011, published 2013).

The conditions of series [1]: humans.
For series [2] the following is noted: 20 mg simvastatin dose, healthy volunteers, Park et al.

Take `Cc1ncc2n1-c1ccc(Cl)cc1C(c1ccccc1F)=NC2` [midazolam]: the “dose excreted unchanged in the urine” value in series [1] is recorded as “less than 1%”.

Take `CCC(C)(C)C(=O)O[C@H]1C[C@@H](C)C=C2C=C[C@H](C)[C@H](CC[C@@H](O)C[C@@H](O)CC(=O)O)[C@H]21` [Simvastatin acid, simvastatin acid]: in series [2], the “SVA Cmax” value is 1.2 ± 1.0 ng/mL.
